Entries after “also recorded” stand apart in the source; their conditions may differ.

The first assay deals with M. tuberculosis isolate 571/573-BAL. Kind of assay: Detergent screen for induced susceptibility, BACTEC 12B growth curves. In kind it is cell-based, Mycobacterium tuberculosis. Conditions: 571/573-BAL; detergent approximately 17 μg/ml final; BACTEC 12B supplemented with PANTA or P/cax (ceftriaxone 8 μg/ml).
As to `CCCCCCCCCCCCCCCCCC[N+](C)(C)Cc1ccccc1.[Cl-]` [Benzyldimethyl-stearyl ammonium chloride, benzyldimethyl-stearyl ammonium chloride, reference compound], the “RESULT (effect on growth)” value is given as “Complete suppression of growth”. Regarding `CCCCCCCCCCCCCCCC[N+](C)(C)CC(O)CS(=O)(=O)[O-]` (stereo not drawn) [C16-hydroxypropyl-sulfobetaine], the “RESULT (effect on growth)” value is “Slight delay in growth”. For `CCCCCCCCCCCCCCCCCC[N+](C)(C)CCCCS(=O)(=O)[O-]` [C18-sulfobutylbetaine], the “RESULT (effect on growth)” value is given as “Slight delay in growth”. The same measure, in the same setting: for `C[C@H](CCC(=O)NCCC[N+](C)(C)CCCS(=O)(=O)[O-])[C@H]1CC[C@H]2[C@@H]3[C@H](O)C[C@@H]4C[C@H](O)CC[C@]4(C)[C@H]3C[C@H](O)[C@]12C` [CHAPS, reference compound] the value was “No effect”. Still for that read-out and setting: to `CCCCCCCCCCCCCCCC[N+](C)(C)CC(=O)[O-]` [DeTaine PB, cetyl-carboxymethylbetaine] belongs “Strong suppression of growth”; to `C[C@H](CCC(=O)O)[C@H]1CC[C@H]2[C@@H]3CC[C@@H]4C[C@H](O)CC[C@]4(C)[C@H]3C[C@H](O)[C@]12C` [Deoxycholic acid, deoxycholic acid, reference compound], “No effect”; to `CCCCCCCCCCCCCCCC(=O)O` [Palmitic acid, palmitic acid, reference compound], “No effect”. For `CCCCCCCCCCCCCCCCCC(=O)O` [Stearic acid, stearic acid, reference compound], the “RESULT (effect on growth)” value is “No effect”. On the same count and under the same terms, to `CCCCCCCCCCCCCC[N+](C)(C)Cc1ccccc1.[Cl-]` [benzyldimethyl-tetradecyl ammonium chloride, reference compound] belongs “Complete suppression of growth”.

With C16-amidopropyl-sulfatobetaine, the “RESULT (effect on growth)” value is on record as “No effect”. Still for that read-out and setting: to “cetyl-(poyoxyethylene)10 [Brij 56, reference compound]” belongs “significantly suppress growth; also recorded: Very strong suppression of growth”; to “erucamidopropyl hydroxypropyl sulfobetaine [Crosultaine E-30]”, “Strong suppression of growth”.

On to “oleyl-(poyoxyethylene)10 [Brij 97, reference compound]”, for which the “RESULT (effect on growth)” value is listed as “significantly suppress growth; also recorded: Very strong suppression of growth”. As for “oleyl-carboxymethylbetaine [Velvetex OLB-50]”, the “RESULT (effect on growth)” value is reported as “Very strong suppression of growth”. Regarding “stearylamidopropyl-carboxybetaine [Schercotaine IAB]”, the “RESULT (effect on growth)” value is “No effect”.

The assay is the same for the next values; noted with them: 571/573-BAL; detergent approximately 17 μg/ml final; BACTEC 12B supplemented with PANTA or P/cax (ceftriaxone 8 μg/ml); listed as Crosultaine E30.
“erucamidopropyl hydroxypropyl sulfobetaine [Crosultaine E-30]”: the “RESULT (effect on growth)” value is given as “significantly suppress growth”.

Still in this assay, the particulars now being: carboxybetaines tested.
For `CCCCCCCCCCCCCCCC[N+](C)(C)CC(=O)[O-]` [DeTaine PB, cetyl-carboxymethylbetaine], the “CB-18 effect in the methods of the invention” value is reported as “show the CB-18 effect”. Same read-out and setting: for “oleyl-carboxymethylbetaine [Velvetex OLB-50]” the value was “show the CB-18 effect”.

For the origin of these results see patent US7067500B2, “Betaines as adjuvants to susceptibility testing and antimicrobial therapy” (priority 1997, dated 2006).
